Tests used:
[1] = tested on: L-selectin; test: ELISA assay, selectin-IgG chimera binding to 2,3 sLex glycolipid (L-selectin); conditions: FIG. 4; tested at several concentrations; results expressed as percent of control binding; values only in the figure
Description: (§1) An ELISA assay (Foxall et al, The Journal of Cell Biology (1992) 117:895) is preferably used which consists of the following three steps:
(§2) 1. 2,3 sLex glycolipid is transferred into microtitre wells as solutions and then evaporated off. Excess, which remained unattached, is washed off with water. The wells are then blocked with a blocking agent, preferably BSA.
(§3) 2. Preparation of "multivalent" receptor of the Selectin-IgG chimera is carried out by combining the respective chimera with biotin labelled goat F(ab')2 anti-human IgG (Fc specific) and streptavidin-alkaline phosphatase diluted appropriately and incubated. This allows the soluble multivalent receptor complex to form.
(§4) 3. Potential inhibitors such as glyco-amino acids or glycopeptides of structural formula I are allowed to react with the soluble receptor. This solution is then placed in the microtitre wells that are prepared in step 1. The plate is incubated to allow the soluble receptor to bind to its natural ligand. In the presence of a strong inhibitor only a few of the receptors should be free to bind to the microtitre plate coated with the natural ligand.
(§5) The positive control is the signal produced by the soluble receptor when it is allowed to react with the natural ligand in the microtitre wells in the absence of any inhibitor. This is considered 100% binding. The signal produced by the receptor that is previously treated with an inhibitor (recorded as O.D.), is divided by the signal produced by the positive control and multiplied by 100 to calculate the % receptor bound to the well in the presence of the inhibitor. The reciprocal of this is the % inhibition.
(§6) The glyco-amino acids or glycopeptides of structural formula I can be tested for their ability to bind to a selectin receptor and/or block the binding site of the receptor and thereby prevent a natural ligand from binding to the selectin receptor (Foxall et al, The Journal of Cell Biology (1992) 117:895). A generalized procedure for testing the ligands is given below.
(§7) An ELISA assay is preferably used which consisted of the following three steps:
1. 2,3 sLex glycolipid (25 picomol/well) was transferred into microtitre wells as solutions and evaporated off. Excess, which remained unattached, was washed off with water. The wells were blocked with 5% BSA at room temperature for an hour and washed with PBS containing 1 mM calcium.
2. Preparation of "multivalent" receptor of the Selectin-IgG chimera was carried out by combining the respective chimera (1 μg/mL) with biotin labelled goat F(ab')2 anti-human IgG (Fc specific) and streptavidin-alkaline phosphatase diluted 1:1000 in 1% BSA-PBS (1 mM calcium) and incubating at 37° C. for 15 min. This allowed the soluble multivalent receptor complex to form.
3. Potential inhibitors such as glyco-amino acids or glycopeptides of structural formula I were allowed to react with the soluble receptor at 37° C. for 45 min. This test assumes that optimal binding, between the soluble phase receptor complex and the inhibitor (non-natural ligand), would occur within this time frame. This solution was placed in the microtitre wells that were prepared in step 1. The plate was incubated at 37° C. for 45 minutes to allow the soluble receptor to bind to its natural ligand. In the presence of a strong inhibitor only a few receptors would be free to bind to the microtitre plate coated with the natural ligand.
as §5, with “control was” for “control is”, “it was” for “it is”, “This was” for “This is”, “that was” for “that is”, “O.D.), was” for “O.D.), is”

[2] = tested on: P-selectin; test: ELISA assay, selectin-IgG chimera binding to 2,3 sLex glycolipid (P-selectin); conditions: FIG. 5; tested at several concentrations; results expressed as percent of control binding; values only in the figure
Description: as §1, §2, §3, §4, §5, §6, §7
1. 2,3 sLex glycolipid (25 picomol/well) was transferred into microtitre wells as solutions and evaporated off. Excess, which remained unattached, was washed off with water. […]
as §5, with “was” for “is”, “This is considered 100% binding.” left out, “The reciprocal of this is the % inhibition.” left out

[3] = tested on: L-selectin; test: Stamper-Woodruff assay (lymphocyte adhesion to HEV of lymph node frozen sections); type: cell-based, Swiss Webster mice; Sprague-Dawley rats; conditions: FIG. 7; lymphocyte binding to HEV, percent of relative binding; values only in the figure
Excerpt: (§8) Lymphocytes are known to circulate from blood to lymphoid tissues via high endothelial venules (HEV) on lymph nodes. L-selectin is expressed on the surface of lymphocytes and is believed to mediate lymphocyte adhesion by binding to the natural ligand on the HEV. The glyco-amino acids or glycopeptides of structural formula I can be tested for their ability to bind to a selectin receptor and/or block the binding site of the receptor and thereby prevent a natural ligand from binding to the selectin receptor. See, for example, Stoolman et al, The Journal of Cell Biology (1983) 96:722. The Stamper-Woodruff assay is well known in the art, and generally consists of the following three steps:
1. Preparation of the lymphocytes:
(a) The lymphocytes are obtained from the mesenteric nodes of female Swiss Webster mice, by gently teasing tissues with phosphate buffered saline (PBS). The cells are obtained by gently squeezing the cells from the tissues. The cells are dispersed and the cell clumps are removed. The single cell suspension is suspended, washed, and kept on ice until use (less than two hours). Cells are counted and prepared at an appropriate concentration.
(b) The superficial and deep cervical lymph nodes of female Sprague-Dawley rats are dissected and prepared in the same way as the mice.
2. Preparation of frozen sections:
Superficial or deep cervical lymph nodes are dissected from the animals, snap frozen, and immediately placed in a cryostat for sectioning. 10-μm sections are prepared and transferred onto glass slides, and air dried.
3. Potential inhibitors are added to lymphocyte suspensions 10-30 minutes before the start of the binding assay, and unless otherwise stated, are present throughout the subsequent binding incubation.
The frozen sections are used in the order in which they are cut. Aliquots of untreated lymphocytes (positive control), suspensions containing fucoidin (negative control) and suspensions containing potential inhibitors are layered on the sections in an arbitrary sequence such that the control and each test substance are represented once in a series.
The binding of the lymphocytes to the HEV is easily distinguishable from binding elsewhere by virtue of the characteristic picture of tightly packed, darkly stained lymphocytes overlaying the histologically distinctive HEV. The number of adherent lymphocytes on each HEV are counted and the average number of adherent cells per HEV (cells bound per HEV) is calculated. The results are expressed as a percent of relative binding, wherein the positive control is considered to be 100% binding.
as §8, with “were” for “can be”
(a) The lymphocytes were obtained from the mesenteric nodes of female Swiss Webster mice (23-27 g), by gently teasing tissues by phosphate buffered saline (PBS). […] Cells were counted and prepared at 3-4×10^7 cells/ml. […]

[4] = tested on: P-selectin; test: P-Selectin/HL-60 assay; type: cell-based; conditions: FIG. 6; HL-60 cells; tested at several concentrations; values only in the figure
Excerpt: The glyco-amino acids or glycopeptides of structural formula I can be tested for their ability to inhibit P-selectin binding to its native ligand. A generalized procedure for testing the ligands is given below. A P-selectin/HL-60 assay is preferably used which consists of the following steps:
1. HL-60 cells are harvested and pelleted by centrifugation. The cells are washed, counted and the volume adjusted appropriately.
2. PVC microtiter plate is blocked with a blocking agent, and washed with TBS-BSA.
3. P-selectin is diluted appropriately in BSA-TBS Ca containing goat F(ab')2 anti-human IgG (Fc spec) and streptavidin-alkaline phosphatase. Positive controls have DMF added to equal the highest concentration of DMF in the sample compounds.
4. Ligands are incubated at room temperature with brisk rotation. […]
Para-nitrophenylphosphonate is added to the plate. […] Aliqouts from each well is transferred to a polystyrene microtiter plate and O.D. read at 405 nm. […] The signal produced by the receptor that is previously treated with an inhibitor (recorded as O.D.), is divided by the signal produced by the positive control and multiplied by 100 to calculate the % receptor bound to the well in the presence of the inhibitor. […]
1. […] The cells were washed three times with TBS without Ca, counted and the volume adjusted to 1.9×10^6 /ml in 1% BSA-TBS Ca just prior to use. […]

Row | Structure (SMILES) | inhibition of the binding of sLe^x to L-selectin [1] | inhibition of the binding of sLe^x to P-selectin [2] | inhibitory effects in the Stamper-Woodruff assay (cell adhesion) [3] | inhibition of the binding of sLe^x to P-selectin in the HL-60 assay [4]
1 | C[C@@H]1O[C@@H](CC(=O)N2CCC[C@H]2C(=O)N[C@@H](Cc2ccccc2)C(=O)O)[C@@H](O)[C@H](O)[C@@H]1O [#1, N-[(1-deoxy-α-L-fucopyranosyl)acetyl]-L-proline-L-phenylalanine] | inhibit the binding of sLe^x to L-selectin | inhibit the binding of sLe^x to P-selectin | inhibitory effects | inhibit the binding of sLe^x to P-selectin
2 | C[C@H](NC(=O)C[C@@H]1O[C@@H](C)[C@@H](O)[C@@H](O)[C@@H]1O)C(=O)N1CCC[C@H]1C(=O)N[C@@H](Cc1ccccc1)C(=O)O [#2, N-[(1-deoxy-α-L-fucopyranosyl)acetyl]-L-alanine-L-proline-L-phenylalanine] | inhibit the binding of sLe^x to L-selectin | – | inhibitory effects | inhibit the binding of sLe^x to P-selectin
3 | C[C@@H]1O[C@@H](CC(=O)N[C@@H](CCCCNC(=O)OC(C)(C)C)C(=O)O)[C@@H](O)[C@H](O)[C@@H]1O [#3, N-ω-t-butoxylcarbonyl-N-α-[(1-deoxy-α-L-fucopyranosyl)acetyl]-L-lysine] | inhibit the binding of sLe^x to L-selectin | inhibit the binding of sLe^x to P-selectin | inhibitory effects | –
4 | C[C@@H]1O[C@@H](CCCC(=O)N2CCC[C@H]2C(=O)N[C@@H](Cc2ccccc2)C(=O)O)[C@@H](O)[C@H](O)[C@@H]1O [#4, N-[4-(1-deoxy-α-L-fucopyranosyl)n-butanoyl]-L-proline-L-phenylalanine] | inhibit the binding of sLe^x to L-selectin | inhibit the binding of sLe^x to P-selectin | inhibitory effects | –
5 | C[C@@H]1O[C@@H](CC(=O)N2CCC[C@H]2C(=O)N[C@H](C(=O)O)c2ccccc2)[C@@H](O)[C@H](O)[C@@H]1O [#5, N-[(1-deoxy-α-L-fucopyranosyl)acetyl]-L-proline-L-phenylglycine] | inhibit the binding of sLe^x to L-selectin | inhibit the binding of sLe^x to P-selectin | inhibitory effects | –
6 | CC1OC(CCCC(=O)NC(Cc2ccccc2)C(=O)O)C(O)C(O)C1O [#6, N-[4-(1-deoxy-α-L-fucopyranosyl)n-butanoyl]-L-phenylalanine] | inhibit the binding of sLe^x to L-selectin | – | – | –
